Columns and labels:
C32 human melanoma cells = test: cell viability in the C32 cell-based assay (Viability, C32 IC50); conditions: Homo sapiens, C32, C32 cells; concentration causing 50% cell death; values greater than 10 represent a lack of cell death; read-out: Viability, C32 IC50
Method in brief: (§1)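 Cell death was scored within the cell-based GM3 experiment for each line. The viability value is the concentration producing 50% death, and numbers exceeding 10 signify no cytotoxicity.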

B16 mouse melanoma cells = test: cell viability in the B16 cell-based assay (Viability, B16 IC50); conditions: Mus musculus, B16, B16 cells; concentration causing 50% cell death; values greater than 10 represent a lack of cell death; read-out: Viability, B16 IC50
Method in brief: as §1

[1] = target: T1, glucosylceramide synthase (Homo sapiens, UniProt Q16739); test: microsomal assay measuring conversion of ceramide to glucosylceramide by HPLC (GCS IC50); type: biochemical; conditions: concentration causing 50% inhibition of glucosylceramide synthase activity
T1 construct: Microsomes were isolated from A375 human melanoma cells; endogenous in cells; host or cells: A375 human melanoma cells (microsomal fraction, 100,000 g pellet)
T1 sequence (Q16739 1-394): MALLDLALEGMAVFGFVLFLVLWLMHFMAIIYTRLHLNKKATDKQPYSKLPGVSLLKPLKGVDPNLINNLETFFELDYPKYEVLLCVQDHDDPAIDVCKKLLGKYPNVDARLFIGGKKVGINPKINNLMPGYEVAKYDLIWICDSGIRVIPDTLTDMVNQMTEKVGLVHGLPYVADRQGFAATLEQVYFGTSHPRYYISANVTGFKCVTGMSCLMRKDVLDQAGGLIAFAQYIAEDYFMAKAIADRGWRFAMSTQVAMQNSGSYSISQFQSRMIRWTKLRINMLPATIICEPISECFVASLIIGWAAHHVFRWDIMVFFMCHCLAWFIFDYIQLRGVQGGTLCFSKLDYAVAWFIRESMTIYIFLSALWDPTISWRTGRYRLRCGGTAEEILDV
Method in brief: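 IC50 is the compound concentration halving glucosylceramide synthase activity. Activity was measured in microsomes, with HPLC quantifying glucosylceramide formed from ceramide.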

[2] = tested on: GM3 expression on the cell surface, B16 mouse melanoma cells; test: cell based phenotypic assay, cell surface GM3 by antibody mediated immunofluorescence, B16 (GM3 B16 IC50); conditions: Mus musculus, B16 mouse melanoma cells; 50% inhibition of GM3 expression on the cell surface; read-out: GM3 B16 IC50
Method in brief: (§2)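 Two melanoma lines, mouse B16 and human C32, were treated and surface GM3 quantified by antibody immunofluorescence for IC50. A parallel viability readout gives the concentration killing 50% of cells, with values over 10 indicating no cell death.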

[3] = tested on: GM3 expression on the cell surface, C32 human melanoma cells; test: cell based phenotypic assay, cell surface GM3 by antibody mediated immunofluorescence, C32 (GM3 C32 IC50); conditions: Homo sapiens, C32 human melanoma cells; 50% inhibition of GM3 expression on the cell surface; read-out: GM3 C32 IC50
Method in brief: as §2

IC50 [1]	IC50 [2]	IC50 [3]	SMILES	IC50 (C32 human melanoma cells)	IC50 (B16 mouse melanoma cells)
2670 nM	1480 nM	456 nM	O=C(OC1CCN2CCC1CC2)N1CCN(c2cccc(-c3ccccc3)c2)CC1 (stereo not shown) [Example 19, 1-Azabicyclo[3.2.2]nonan-4-yl 4-([1,1′-biphenyl]-3-yl)piperazine-1-carboxylate]	9090 nM	7.09 µM
16600 nM	4470 nM	10700 nM	O=C(OC1CC2CCN(CC2)C1)N1CCN(c2cccc(-c3ccccc3)c2)CC1 (stereo not shown) [Example 20, 1-Azabicyclo[3.2.2]nonan-3-yl 4-([1,1′-biphenyl]-3-yl)piperazine-1-carboxylate]	≥ 15100 nM	7.71 µM
9520 nM	1680 nM	1080 nM	O=C(OC1CCN2CCC1CC2)N1CCN(c2cccc(-c3ccc(F)cc3)c2)CC1 (stereo not shown) [Example 24, 1-Azabicyclo[3.2.2]nonan-4-yl 4-(4′-fluoro-[1,1′-biphenyl]-3-yl)piperazine-1-carboxylate]	3980 nM	3.61 µM
6900 nM	> 10000 nM	360 nM	CC1(NC(=O)N2CCN(c3cccc(-c4ncccn4)c3)CC2)CCN2CCC1CC2 (stereo not shown) [Example 26, N-(4-Methyl-1-azabicyclo[3.2.2]nonan-4-yl)-4-(3-(pyrimidin-2-yl)phenyl)piperazine-1-carboxamide]	≥ 10000 nM	≥ 10 µM
1590 nM	1440 nM	86.6 nM	CC(C)c1cccc(N2CCN(C(=O)NC3(C)CCN4CCC3CC4)CC2)c1 (stereo not shown) [Example 28, 4-(3-Isopropylphenyl)-N-(4-methyl-1-azabicyclo[3.2.2]nonan-4-yl)piperazine-1-carboxamide]	3160 nM	≥ 10 µM
309 nM	2660 nM	38.2 nM	CC1(NC(=O)N2CCN(c3cccc(C4CCCCC4)c3)CC2)CCN2CCC1CC2 (stereo not shown) [Example 29, 4-(3-Cyclohexylphenyl)-N-(4-methyl-1-azabicyclo[3.2.2]nonan-4-yl)piperazine-1-carboxamide]	1000 nM	7.81 µM
376 nM	864 nM	63.9 nM	CC1CN(c2cccc(-c3ccccc3)c2)CCN1C(=O)NC1(C)CCN2CCC1CC2 (stereo not shown) [Example 30, 4-([1,1′-Biphenyl]-3-yl)-2-methyl-N-(4-methyl-1-azabicyclo[3.2.2]nonan-4-yl)piperazine-1-carboxamide]	1000 nM	7.64 µM
4.06 nM	70.7 nM	1.51 nM	CC1CN(C(=O)NC2(C)CCN3CCC2CC3)CCN1c1cccc(-c2ccccc2)c1 (stereo not shown) [Example 31, 4-([1,1′-Biphenyl]-3-yl)-3-methyl-N-(4-methyl-1-azabicyclo[3.2.2]nonan-4-yl)piperazine-1-carboxamide]	1000 nM	7.62 µM
4.78 nM	79 nM	0.872 nM	CC1(NC(=O)C2CCN(c3cccc(-c4ccc(F)cc4)c3)CC2)CCN2CCC1CC2 (stereo not shown) [Example 34, 1-(4′-Fluoro-[1,1′-biphenyl]-3-yl)-N-(4-methyl-1-azabicyclo[3.2.2]nonan-4-yl)piperidine-4-carboxamide]	316 nM	4.72 µM
10.3 nM	136 nM	2.5 nM	CC1(NC(=O)C2CCN(c3cccc(-c4ccccc4)c3)CC2)CCN2CCC1CC2 (stereo not shown) [Example 36, 1-([1,1′-Biphenyl]-3-yl)-N-(4-methyl-1-azabicyclo[3.2.2]nonan-4-yl)piperidine-4-carboxamide]	1000 nM	7.57 µM
1050 nM	2600 nM	89.4 nM	CC1(NC(=O)C2CCN(c3ccc(-c4ccccc4)cc3)CC2)CCN2CCC1CC2 (stereo not shown) [Example 38, 1-([1,1′-Biphenyl]-4-yl)-N-(4-methyl-1-azabicyclo[3.2.2]nonan-4-yl)piperidine-4-carboxamide]	6740 nM	6.62 µM
1800 nM	7240 nM	126 nM	CC1(NC(=O)C2CCN(c3cccc(-c4ncccn4)c3)CC2)CCN2CCC1CC2 (stereo not shown) [Example 39, N-(4-Methyl-1-azabicyclo[3.2.2]nonan-4-yl)-1-(3-(pyrimidin-2-yl)phenyl)piperidine-4-carboxamide]	3160 nM	≥ 10 µM
291 nM	5500 nM	15.2 nM	CC1(NC(=O)C2CCN(c3cccc(-c4cncnc4)c3)CC2)CCN2CCC1CC2 (stereo not shown) [Example 40, N-(4-Methyl-1-azabicyclo[3.2.2]nonan-4-yl)-1-(3-(pyrimidin-5-yl)phenyl)piperidine-4-carboxamide]	1000 nM	0.0713 µM
1.14 nM	9.7 nM	0.124 nM	CC1(NC(=O)C2CCN(c3nccc(-c4ccc(F)cc4)n3)CC2)CCN2CCC1CC2 (stereo not shown) [Example 41, 1-(4-(4-Fluorophenyl)pyrimidin-2-yl)-N-(4-methyl-1-azabicyclo[3.2.2]nonan-4-yl)piperidine-4-carboxamide]	20 nM	6.44 µM
2.79 nM	76.6 nM	0.425 nM	CC1(NC(=O)C2CCN(c3cncc(-c4ccc(F)cc4)n3)CC2)CCN2CCC1CC2 (stereo not shown) [Example 46, 1-(6-(4-Fluorophenyl)pyrazin-2-yl)-N-(4-methyl-1-azabicyclo[3.2.2]nonan-4-yl)piperidine-4-carboxamide]	316 nM	7.31 µM

SMILES	IC50 [1]	IC50 [2]	IC50 [3]	IC50 (C32 human melanoma cells)	IC50 (B16 mouse melanoma cells)
CCC1(NC(=O)N2CCN(c3cccc(-c4ccccc4)c3)CC2)CN2CCC1CC2 (stereo not shown) [Example 21, 4-([1,1′-Biphenyl]-3-yl)-N-(3-ethylquinuclidin-3-yl)piperazine-1-carboxamide]	288 nM	168 nM	25.2 nM	3160 nM	7.23 µM
CCC1(NC(=O)N2CCN(c3cccc(-c4ccc(F)cc4)c3)CC2)CN2CCC1CC2 (stereo not shown) [Example 23, N-(3-Ethylquinuclidin-3-yl)-4-(4′-fluoro-[1,1′-biphenyl]-3-yl)piperazine-1-carboxamide]	1580 nM	351 nM	90.9 nM	3160 nM	7.07 µM
CC1(NC(=O)C2CCN(c3cccc(-c4ccc(F)cc4)c3)CC2)CN2CCC1CC2 (stereo not shown) [Example 33, 1-(4′-Fluoro-[1,1′-biphenyl]-3-yl)-N-(3-methylquinuclidin-3-yl)piperidine-4-carboxamide]	22.1 nM	237 nM	5.02 nM	1000 nM	6.91 µM
CC1(NC(=O)C2CCN(c3cccc(-c4ccccc4)c3)CC2)CN2CCC1CC2 (stereo not shown) [Example 35, 1-([1,1′-Biphenyl]-3-yl)-N-(3-methylquinuclidin-3-yl)piperidine-4-carboxamide]	49.6 nM	149 nM	7.11 nM	1000 nM	7.31 µM
CC1(NC(=O)C2CCN(c3ccc(-c4ccccc4)cc3)CC2)CN2CCC1CC2 (stereo not shown) [Example 37, 1-([1,1′-Biphenyl]-4-yl)-N-(3-methylquinuclidin-3-yl)piperidine-4-carboxamide]	1550 nM	1800 nM	131 nM	6900 nM	7.05 µM
CC1(NC(=O)C2CCN(c3nccc(-c4ccc(F)cc4)n3)CC2)CN2CCC1CC2 (stereo not shown) [Example 44, 1-(4-(4-Fluorophenyl)pyrimidin-2-yl)-N-(3-methylquinuclidin-3-yl)piperidine-4-carboxamide]	1.24 nM	49.9 nM	0.205 nM	316 nM	9.27 µM
O=C(NC1CN2CCC1CC2)C1CCN(c2nccc(-c3ccc(F)cc3)n2)CC1 (stereo not shown) [Example 45, 1-(4-(4-Fluorophenyl)pyrimidin-2-yl)-N-(quinuclidin-3-yl)piperidine-4-carboxamide]	2.67 nM	125 nM	0.457 nM	1000 nM	≥ 10 µM
CC1(NC(=O)C2CCN(c3cncc(-c4ccc(F)cc4)n3)CC2)CN2CCC1CC2 (stereo not shown) [Example 49, 1-(6-(4-Fluorophenyl)pyrazin-2-yl)-N-(3-methylquinuclidin-3-yl)piperidine-4-carboxamide]	4.1 nM	145 nM	0.822 nM	1000 nM	8.16 µM
